In US20170035713A1, “SYNERGISTIC COMBINATIONS OF CAROTENOIDS AND POLYPHENOLS” (LYCORED LTD., priority 2009, published 2017):

Experiments:
Type in all cases: cell-based, mouse
[1] = test system: LPS stimulated NO production by macrophages; assay: NO production assay in LPS-stimulated peritoneal macrophages, curcumin, lutein and Lycomato (second Example 1)
Description: Macrophage isolation and cell culture—Peritoneal macrophages were collected from the peritoneal cavity of 6-8 week old male ICR mice (Harlan, Israel) that had been given an intraperitoneal injection of 1.5 ml of thioglycollate broth (4%) 4 days before harvest. Peritoneal macrophages were washed three times with PBS and, if needed, a hypotonic lysis of erythrocytes was performed, yielding 90-95% purity. The macrophages were identified by FACS analysis using FITC-conjugated rat anti-mouse F4/80 (MCA497F) (Serotec, Oxford, England) by flow microfluorimetry on FACS (Becton Dickinson, Mountain View, Calif.). For each sample, 10,000 light scatter-gated viable cells were analyzed. Peritoneal macrophages were cultured in RPMI 1640 medium containing 10% FCS, 2 mM L-glutamine; 100 U/ml penicillin; 100 μg/ml streptomycin (Beit-Haemek, Israel) in 96-well plates (2×10^5 cells/well) at 37° C. in 5% CO2 atmosphere. LycoMato, Lutein and curcumin-PC (Indena product) and, for comparison, LycoMato, Lutein and pure curcumin and their various combinations were added to the cells. One hour later, LPS (0.2 μg/ml) was added and the macrophages were cultured at 37° C. in a 5% CO2 atmosphere for 24 h.
Curcumin PC (Indena) was dissolved in Diethylene glycol monoethyl ether from Sigma (as recommended by Indena). The volume of solvent was 0.12% for 1 µM curcumin PC. The concentration of curcumin PC was calculated according to its content in the formula (Curcumin PC). Lycomato and Lutein or curcumin were dissolved in DMSO (the volume of DMSO in the test solution was 0.01% for either 1 […] Lycomato, Lutein or pure curcumin. The mixture was vortexed and shaken at 37° C. for 10 min and sonicated in a sonicator bath for 15 sec×3 times. From this stock solution the desired concentrations were made by addition of appropriate volumes to warm culture medium. The concentration of lycopene in solution was calculated to 1 ml of the highest final concentration 0.5 ml isopropanol+1.5 ml hexane/dichloromethane (1:5 V/V) containing 0.025% BHT. The solution is vortexed and the phases are separated by centrifugation 3000 rpm for 10 min. A spectrum was done to detect the level of nutrients.
To the controls appropriate volumes of DMSO and/or Diethylene glycol monoethyl ether were added and the percent inhibition of each test tube was calculated in relation to its control tube.
NO production assay—NO levels in supernatants of cell cultures were determined by assaying nitrite levels using Griess reagent and sodium nitrite as a standard.

[2] = test system: NO production by peritoneal macrophages; assay: NO production assay in LPS-stimulated peritoneal macrophages (Example 1)
Description: (§1) Macrophage isolation and cell culture—Peritoneal macrophages were collected from the peritoneal cavity of 6-8 week old male ICR mice (Harlan, Israel) that had been given an intraperitoneal injection of 1.5 ml of thioglycollate broth (4%) 4 days before harvest. Peritoneal macrophages were washed three times with PBS and, if needed, a hypotonic lysis of erythrocytes was performed, yielding 90-95% purity. The macrophages were identified by FACS analysis using FITC-conjugated rat anti-mouse F4/80 (MCA497F) (Serotec, Oxford, England) by flow microfluorimetry on FACS (Becton Dickinson, Mountain View, Calif.). For each sample, 10,000 light scatter-gated viable cells were analyzed. Peritoneal macrophages and murine macrophage cell line RAW264.7 were cultured RPMI 1640 medium containing 10% FCS, 2 mM L-glutamine; 100 U/ml penicillin; 100 μg/ml streptomycin (Beit-Haemek, Israel) in 96-well plates (1×10^6 cells/well) at 37° C. in 5% CO2 atmosphere. Cells were stimulated with LPS (0.1-1 μg/ml) in the presence or absence of carnosic acid and/or one or more of the following carotenoids: carnosic acid, purified lycopene, lycopene-rich tomato extract (Lyc-O-Mato®; LycoRed Ltd., Be'er Sheva, Israel), lutein and beta-Carotene.
(§2) The carnosic acid and the various carotenoids were dissolved in DMSO (to a final concentration of 5 mM). The mixture was vortexed and incubated in a water bath at 37° C. (with shaking) for 10 min and then sonicated in a sonicator bath three times for 15 seconds each time. Using this stock solution the desired concentrations were prepared by the addition of appropriate volumes thereof to warm culture medium.
(§3) Appropriate volumes of DMSO (0.1-0.2%) were added to the controls and the percent inhibition in each test tube was calculated in relation to its control.
NO production assay—NO levels in supernatants of cell cultures were determined by assaying nitrite levels using Griess reagent and sodium nitrite as a standard as described in Green, L. C., Wagner, D. A., Glogowski, J., Skipper, P. L., Wishnok, J. S., and Tannenbaum, S. R. (1982) Anal Biochem. 126: 131-138.

[3] = test system: TNF-alpha production by peritoneal macrophages; assay: TNF-alpha production assay (ELISA) in LPS-stimulated peritoneal macrophages; settings: FIG. 3; same set of experiments and concentrations as FIG. 2
Description: as §1, with “Cells were stimulated with LPS (0.1-1 μg/ml) in the presence or absence of carnosic acid and/or one or more of the following carotenoids: carnosic acid, purified lycopene, lycopene-rich tomato extract (Lyc-O-Mato®; LycoRed Ltd., Be'er Sheva, Israel), lutein and beta-Carotene.” left out
as §3
TNF-alpha production assay—Concentrations of TNF-alpha were quantified using ELISA kits (Biolegend Inc., San Diego, Calif.).

[4] = test system: macrophage superoxide production; assay: Superoxide production by macrophages (ferricytochrome c reduction); settings: optimal low concentrations
Description: Peritoneal macrophages were isolated and treated as described hereinabove in Example 1.
Superoxide production: The production of superoxide anion (O2^−) by macrophages was measured as the superoxide dismutase-inhibitable reduction of ferricytochrome c by the microtiter plate technique, as known in the prior art. An aliquot of radiolabelled macrophages (5× 10^5 cells/well) used for the adherence assay was taken and suspended in 100 μl incubation medium containing ferricytochrome c ([…]). Stimulation was induced with PMA (50 ng/ml). The reduction of ferricytochrome c was followed by a change of absorbance at 550 nm at 2 min intervals for 30 min on a Thermomax Microplate Reader (Molecular Devices, Melno Park, Calif., USA). The maximal rates of superoxide generation were determined and expressed as nanomoles O2^−/10^6 cells/10 min using the extinction coefficient E550=21 mM^−1 cm^−1.

[5] = test system: PGE2 production by peritoneal macrophages; assay: PGE2 measurement (radio-immunoassay) in LPS-stimulated peritoneal macrophages; settings: for inhibition of PGE2 production (in words): FIG. 5a/5b lower panel, lutein 0.5 μM, beta-Carotene 1 μM, carnosic acid 1 μM; for inhibition of PGE2 production: used alone, FIG. 4 / FIG. 5a upper panel, same set of experiments as FIG. 2
Description: as §1, §2, §3
PGE2 measurement—Supernatants of resting and stimulated cells were collected and immediately stored at −70° C. PGE2 levels were determined by utilizing a dextran coated charcoal radio-immunoassay protocol as previously described (Dror N, Tveria L, Meniv I, Ben-Shmuel S, Filipovich T, Fleisher-Berkovich S., Regul Pept. 2008 150: 21-5).
Briefly, 100 μl sample or PGE2 standard (Sigma Israel, Rehovot, Israel) were incubated in the presence of 500 μl anti-PGE2 anti-serum (Sigma Israel, Rehovot, Israel) for 30 min. [^3H]PGE2 (Amersham Biosciences, NJ, USA) was added next for 24 h at 4° C. 24 h later, 200 […]μl cold dextran coated charcoal suspension was added to each tube and incubated for 10 min on ice. The tubes were centrifuged at 3500 RPM for 15 min at 4° C. 500 μl of supernatants containing [^3H]PGE2-anti-PGE2 complexes were counted (Packard Spectrometry 1900CA) and the amount of PGE2 was calculated.

[6] = Mus musculus, Peritoneal macrophage, read-out: inhibition of NO production

For `COc1cc(/C=C/C(=O)CC(=O)/C=C/c2ccc(O)c(OC)c2)ccc1O` [pure curcumin, curcumin], the “inhibition of LPS stimulated NO production” value ([1]; 2 μM Curcumin-PC or pure Curcumin, 1 μM Lycomato, 1 μM Lutein, alone or combined, LPS 0.2 μg/ml, 24 h) was 2±0.4%, the inhibition at 15 µM ([1]; Mus musculus, Macrophage, dose response 0-20 μM, at 15 μM) was 75% and the “inhibition of NO production (in words)” value ([1]; alone, 1 μM and 2 μM) was “non-significant inhibitory effect”.

For `CC(C)=CCC/C(C)=C/C=C/C(C)=C/C=C/C(C)=C/C=C/C=C(C)/C=C/C=C(C)/C=C/C=C(\C)CCC=C(C)C` [lycopene], the “inhibition of NO production (in words)” value ([2]; alone, range of 1-5 μM) was “low level inhibition”, the “inhibition of TNF-alpha production (in words)” value [3] was “lack of detectable inhibition” and the “inhibition of superoxide production (in words)” value ([4]; FIG. 9) was “lack of detectable inhibition”.

With `CC1=C[C@H](O)CC(C)(C)[C@H]1/C=C/C(C)=C/C=C/C(C)=C/C=C/C=C(C)/C=C/C=C(C)/C=C/C1=C(C)C[C@@H](O)CC1(C)C` [lutein] the inhibition at 1 µM ([1]; Mus musculus, Macrophage, 2 μM Curcumin-PC or pure Curcumin, 1 μM Lycomato, 1 μM Lutein, alone or combined, LPS 0.2 μg/ml, 24 h) was 5 ± 0.9% and the “inhibition of PGE2 production (in words)” value [5] was “neither lutein (0.5 μM) nor beta-Carotene (1 μM) alone affected PGE2 production”.

Work on `CC(C)c1cc2c(c(O)c1O)[C@@]1(C(=O)O)CCCC(C)(C)[C@@H]1CC2` [carnosic acid] yielded an inhibition at 1 µM [2, 6] of 12%, an inhibition at 2 µM [2, 6] of 18% and an inhibition at 1 µM ([5]; Mus musculus, Peritoneal macrophage, read-out: inhibition of PGE2 production) of 10%. The “inhibition of PGE2 production” value [5] was “around 20%”.

For `CC1=C(/C=C/C(C)=C/C=C/C(C)=C/C=C/C=C(C)/C=C/C=C(C)/C=C/C2=C(C)CCCC2(C)C)C(C)(C)CCC1` [beta-carotene], the “inhibition of PGE2 production (in words)” value [5] was “neither lutein (0.5 μM) nor beta-Carotene (1 μM) alone affected PGE2 production”, the “inhibition of PGE2 production” value [5] was “around 20%” and the inhibition at 2 µM ([4]; Mus musculus, Macrophage, alone, beta-carotene 2 μM) was 10%.
